Test results published in patent publication US8383578B2, “Peptides, derivatives and analogs thereof, and methods of using same” (CureDM Group Holdings, LLC, priority 2005, dated 2013).
Entries after “also recorded” stand apart in the source; their conditions may differ.

Columns and labels:
[1] = system: type 1 patients; conditions: cited from earlier work
[2] = dosages up to 10,000 IU/day; cited from earlier work
[3] = system: diabetic patients; conditions: cited from earlier work
[4] = system: human pancreatic ductal tissue culture; test: Insulin production in human pancreatic ductal tissue culture, radioimmunoassay; assay type: cell-based; conditions: 3.3 μM (final culture concentration of 165 nM)
Description: (§1) Human pancreatic islet and progenitor fractions were cultured over 10 days, according to standard protocol. Briefly, pancreata from adult human cadaveric organ donors were obtained through the local organ procurement organization. Islets were isolated according to established protocols described by Bonner-Weir and Jamal. (Bonner-Weir et al., Pediatric Diabetes: 2004; 5(Suppl 2):16-22. Jamal et al., Cell Death Differ. 2005 July; 12(7):702-12).
(§2) Following removal of the organ, cold ischemia time was no more than 8 hours prior to islet isolation. The main pancreatic duct was cannulated and perfused with Liberase HI (Roche Diagnostics). The perfused organ was placed in a closed system (Ricordi Apparatus) and heated to 37° C. to activate the enzyme blend. Following the appearance of free islets in samples, the system was cooled and free tissues were collected and washed. Tissues were applied to a continuous density gradient created using Ficoll (Biochrom KG) in a cell processor (COBE). Free islets with diameters ranging from 75 to 400 μm, determined to be greater than 90% pure by staining with dithizone (Sigma) a zinc chelater, were collected and washed. IHC to detect the presence of amylase and cytokeratin was negative, consistent with the absence of progenitor and exocrine tissue. The progenitor fraction from this separation was also collected for culture.
(§3) Isolated islets were embedded in a type 1 collagen matrix at a density of 2000 islet equivalents/25 cm^2 and cultured in DMEM/F12 containing 10% FBS, 1 μM dexamethasone, 10 ng/ml EGF, 24 mU/ml insulin and 100 ng/ml cholera toxin. Medium was changed every other day. On day 10, culture was continued in the above medium, without the cholera toxin, with neogenic agents and inhibitors at the final concentrations listed below. Medium was changed every other day. Collagen-embedded cultures were harvested by incubating with 0.25 g/L collagenase XI (Sigma) for 30 minutes at 37° C. […]
(§4) Insulin levels were detected by Radioimmunoassay (RIA) from cultures treated with saline only, scrambled peptide, SEQ ID NOs: 7, 3 or 2 and hamster INGAP. […]

[5] = system: human pancreatic islet tissue; test: Insulin production in human pancreatic islet tissue culture, radioimmunoassay; assay type: cell-based; conditions: 1 mM for a final culture concentration of 500 nM
Description: as §1, §2, §3, §4

[6] = system: human pancreatic ductal tissue cultures; test: Insulin production in human pancreatic ductal tissue cultures, ELISA; assay type: cell-based; conditions: for insulin production vs Peptide 4 (hamster INGAP) and Peptide 5 (scrambled) (FIG. 4): after 10 days, Rosenberg protocol, samples 5 μg total protein in duplicate; for insulin production vs hamster INGAP and scrambled control (FIG. 7A): two concentrations of peptide (3 μM and 1 mM)
Description: (§5) Human pancreatic tissue was treated as described in Example 1 and Insulin production was measured by ELISA assay. FIGS. 4 and 5 show the results of this experiment to show a dose response and to again compare the effect of HIP on the two different fractions of tissue as compared to the hamster INGAP sequence and a scrambled negative peptide sequence. […] The results in FIG. 4 involve the use of 5 μg of each peptide, while the results in FIG. 5 were acquired using 0.002 μg of each peptide.

[7] = system: human pancreatic islet tissue cultures; test: Insulin production in human pancreatic islet tissue cultures, ELISA; assay type: cell-based; conditions: for insulin production vs Peptide 4 (hamster INGAP) and Peptide 5 (scrambled) (FIG. 5): after 10 days, Rosenberg protocol, 0.002 μg of each peptide in duplicate; for insulin production vs hamster INGAP and scrambled control (FIG. 7B): two concentrations of peptide (3 μM and 1 mM)
Description: as §5

[8] = system: human pancreatic progenitor cells; test: Islet generation in human ductal tissue culture, inverted microscopy; assay type: cell-based; conditions: ductal/progenitor tissue fraction culture treated with HIP; listed as HIP
Description: A human ductal tissue fraction was isolated and cultured as described in Example 1. After 10 days of culture, cells were treated with HIP for four days and observed using inverted microscopy. […] Islets have formed what has previously been described as ductal epithelial cysts and are starting to bud at one end where a progenitor cell resides. […] In this panel the darkening of the budding portion of the ductal epithelial cyst indicates the differentiation of cells consistent with previously shown changes that occur with hamster INGAP treatment in vitro.

[9] = system: NOD mice; test: HIP treatment of non-obese diabetic (NOD) mice; assay type: in vivo, mouse; conditions: HIP 1 μg/kg/day to 100 mg/kg/day, protocol example
From the text: Animal Model. The non-obese diabetic (NOD) mouse strain has long been studied as an excellent model of type 1 diabetes because it spontaneously develops a disease that is very similar to the human condition. Delovitch, T. L., and Singh, B. 1997. Immunity. 7:727-738. Diabetes in NOD mice is mediated by inflammatory autoreactive T cells that recognize pancreatic islet antigens and escape central and peripheral tolerance.
Procedure: In a parental colony of NOD mice, incidence of diabetes in female NOD mice is typically 75-90% by 30 weeks but may exceed 90% in some cohorts. […] Doses of HIP range from 1 μg/kg/day to 100 mg/kg/day.
Treatment. Cohorts are treated in 2 arms with 2-4 dose ranges of HIP and a placebo, at a compensated dose for animal size, metabolism and circulation, or about 1/6 the mg/kg equivalence. Arm 1: saline, Arm 2: HIP.
Study Assessment. Blood glucose levels are measured every week with a One Touch II glucose meter (Lifescan). Mice are considered diabetic after 2 consecutive measurements over 300 mg/dl. For histological analysis, pancreases are snap-frozen. Multiple 5-μm sections are stained with hematoxylin and eosin and scored blindly for severity of insulitis as known in the art.

Row | Compound | insulin production vs INGAP peptide and scrambled negative control (FIG. 1) [4] | insulin production vs INGAP peptide and scrambled negative control (FIG. 2) [5] | insulin production vs Peptide 4 (hamster INGAP) and Peptide 5 (scrambled) (FIG. 4) [6] | insulin production vs hamster INGAP and scrambled control (FIG. 7A) [6] | insulin production vs Peptide 4 (hamster INGAP) and Peptide 5 (scrambled) (FIG. 5) [7] | insulin production vs hamster INGAP and scrambled control (FIG. 7B) [7] | other results
1 | CC[C@H](C)[C@H](NC(=O)[C@@H]1CCCN1C(=O)CNC(=O)[C@H](Cc1ccccc1)NC(=O)[C@H](CC(N)=O)NC(=O)[C@H](CC(N)=O)NC(=O)[C@H](CO)NC(=O)[C@H](CO)NC(=O)[C@H](Cc1c[nH]cn1)NC(=O)[C@@H](NC(=O)[C@H](CC(C)C)NC(=O)[C@H](Cc1ccccc1)NC(=O)[C@H](CC(N)=O)NC(=O)[C@H](C)NC(=O)[C@H](CC(C)C)NC(=O)[C@H](CCCNC(=N)N)NC(=O)[C@H](CCC(N)=O)NC(=O)[C@@H](NC(=O)[C@H](C)NC(=O)[C@@H]1CSSC[C@H](NC(=O)[C@@H](N)CCCCN)C(=O)N[C@@H](CC(N)=O)C(=O)N[C@@H]([C@@H](C)O)C(=O)N[C@@H](C)C(=O)N[C@@H]([C@@H](C)O)C(=O)N1)[C@@H](C)O)C(C)C)C(=O)N[C@@H](CC(C)C)C(=O)N1CCC[C@H]1C(=O)N1CCC[C@H]1C(=O)N[C@H](C(=O)N[C@@H](CC(N)=O)C(=O)N[C@H](C(=O)NCC(=O)N[C@@H](CO)C(=O)N[C@@H](CC(N)=O)C(=O)N[C@H](C(=O)N[C@@H](Cc1ccc(O)cc1)C(N)=O)[C@@H](C)O)C(C)C)[C@@H](C)O [Pramlintide] | – | – | – | – | – | – | glycemic excursions and pre-meal insulin requirements [1]: reduce glycemic excursions
2 | C=C1CC[C@H](O)C/C1=C/C=C1\CCC[C@]2(C)[C@@H]([C@H](C)CCCC(C)C)CC[C@@H]12 [Vitamin D, cholecalciferol] | – | – | – | – | – | – | adverse effects [2]: No adverse effects
3 | IGLHDPSHGTLPNGS (listed as Hamster sp.) [hamster INGAP] | – | – | – | – | – | – | patients with a >50% increase in GAD65 antibody titers ([3]; 300 mg/day treatment group, Phase II study): 22%; C-peptide secretion ([3]; 600 mg/day): increase; effectiveness ([3]; Phase II trial): Little effectiveness; patient drop out due to discomfort and bruising at injection site ([3]; human, in vivo): high drop out; tolerability ([3]; human, in vivo): well tolerated; hemoglobin A1C ([3]; type 2 diabetes patients): fell
4 | IGLHDPTQGTEPNG (listed as Homo sapiens) [HIP2] | increased insulin production | increased insulin production | increased insulin production | increased insulin production | increased insulin production | increased insulin production | –
5 | IGLHDPTQGTEPNGE (listed as Homo sapiens) [HIP3] | increased insulin production | increased insulin production | increased insulin production | increased insulin production | increased insulin production | increased insulin production | new islet structure formation in culture (micrographs) [8]: Morphological changes show islet like structure; also recorded: New islet structure has formed; also recorded: forming a nidus of new insulin producing islets; also recorded: forming insulin producing islet like structure; blood glucose levels [9]: pronounced reduction; insulitis in pancreases (histology) [9]: decreased showing of insulinitis
6 | WIGLHDPTQGTEPNG [HIP1] | increased insulin production | increased insulin production | increased insulin production | increased insulin production | increased insulin production | increased insulin production | –
